Patent publication US20070026073A1, “Amorphous efavirenz and the production thereof” (priority 2005, published 2007)

Assay: dissolution test, USP apparatus II (paddles), efavirenz released in water
Type: physicochemical
Conditions: 50 mg efavirenz equivalent in capsule with 15% croscarmellose sodium, 37° C., 100 rpm
Description: FIG. 9 is a plot of percent efavirenz released in water as a function of time for spray dried product using solvent and solvent/non-solvent methods in accordance with Example #8.
Initial release refers to the percent of drug released after 15 minutes in accordance with a standard dissolution test method. Extent of release refers to the percent of drug released after 240 minutes in accordance with the same standard dissolution test method.
Preferably these limits are obtained within about 120 minutes, more particularly within about 60 minutes and still more particularly within about 30 minutes. Dissolution profiles can be determined using USP apparatus II (paddles) (VK 7010®, Varian Inc.), with a bath temperature of 37° C. and a paddle speed of 100 rpm for 240 minutes.
3. The dissolution properties of both amorphous compositions were tested and compared to the crystalline drug form. An amount equivalent to 50 mg efavirenz was analyzed. Powders were hand-filled into size 1 hard gelatin capsules (Shinogi Qualicaps) with an additional 15% croscarmellose sodium (Ac-Di-Sol®, FMC BioPolymers). USP apparatus II (paddles) (VK 7010®, Varian Inc.) was used, with a bath temperature of 37° C. and a paddle speed of 100 rpm for 240 minutes. Both amorphous efavirenz compositions achieved faster rate of release and higher maximum aqueous concentration than the crystalline form (FIG. 9, Table 1). […]

With `O=C1Nc2ccc(Cl)cc2[C@@](C#CC2CC2)(C(F)(F)F)O1` [crystalline efavirenz, (S)-6-chloro-4-(cyclopropylethynyl)-1,4-dihydro-4-(trifluoromethyl)-2H-3,1-benzoxazin-2-one] the “EFV released 15 min” value (15 min) was 7% and the “EFV released 240 min” value (240 min) was 13%.
